Data set [1] relates to T. cruzi extracellular amastigotes. The experiment in a line: Extracellular amastigote assay (ATPlite luminescence, 48 hours). Format: cell-based. Conditions: Trypanosoma cruzi. The procedure:
(§1) The in vitro anti-T. cruzi amastiogote activity assay was performed and optimized based on the protocol described previously. The change in tdTomato fluorescence intensity was determined as a measurement of growth over 72 hours of culture. For assaying drug effects on extracellular amastigotes, trypomastigotes were collected from infected Vero cell cultures and converted in acidic media as previously described. Amastigotes (50,000/well) were incubated with 2-fold serial dilutions of compounds for 48 hours. The ATP production was used as an indication of growth in this case, and was measured by ATPlite Luminescence ATP Detection Assay System (PerkinElmer). Both fluorescence and luminescence were read using a BioTek Synergy Hybrid Multi-Mode reader equipped with the software Gene5 v 2.0 (BioTek). The dose-response curve was generated by […] analysis with GraphPad Prism v9.4.0 (GraphPad Software).
A general note: ATP-based viability assays read luminescence as a measure of living cells.

The subject of data set [2] is tdTomato expressing T. cruzi (CL strain). The experiment in a line: Rapid in vivo assay: footpad infection, single oral dose, fluorescence imaging 2 and 4 dpi (proliferation index).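 As to Parasite proliferation index of footpads infected with tdTomato-expressing T. cruzi: single oral dose of 50 mg/kg given at 2 dpi.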 On the set-up: species or system C57BL/6 mice. Conditions: for Fluorescence intensity of the feet of mice infected with tdTomato-expressing T. cruzi: individual feet. The procedure: Fluorescent intensity of the feet was measured at 2 dpi before compound administration and at 4 dpi in the Maestro in vivo imaging system equipped with the software Maestro 2.1.0 (CRi) as previously described. The proliferation index was estimated as PI=[(T4d – T2d)/(mUnt4d-mUnt2d)]*100; where T4d and T2d are the fluorescence intensity of the feet of the treated animals at days 4 and 2 post-infection respectively; mUnt4d and mUnt2d are the average fluorescence intensity of the feet of the untreated animals at 4 and 2 dpi respectively.

In data set [3] the test system is TcCBP KO T. cruzi intracellular amastigotes. The experiment in a line: microbe, parasite or virus in culture. Format: cell-based. The note with it: Trypanosoma cruzi, read-out: TcCBP KO IC50. The procedure:
as §1
The CBPs knockout was produced using ribonucleoprotein (RNP) complexes as previously described. Briefly, Brazil tdTomato strain epimastigotes were electroporated with RNP complexes containing SaCas9 and an sgRNA targeting CBP gene TcBrA4_0048170, plus a repair template containing stop codons in all three reading frames and the M13 sequence for use as a PCR anchor. The sgRNA targeted the ‘[…]” sequence. After 2 days of recovery, single-cell clones were derived by depositing epimastigotes into a 96-well plate at a density of 0.5 cell/well by using a MoFlo Astrios EQ cell sorter (Beckman Coulter). DNA isolation was performed for clones, and primer pair of 5’-[…]-3’ and 5’- […] -3’ was used for amplifying the wild type allele, while primer pair of M13-F: 5’- […] -3’ and 5’- […] -3’ was used for amplifying the mutant allele.

Data set [4] concerns T. cruzi (naturally acquired infection). The experiment in a line: NHP treatment study: hemoculture. In kind it is in vivo, rhesus macaques (Macaca mulatta). Conditions: 30 mg/kg/day oral 60 days; all time points after end of treatment. The procedure: A total of 22 rhesus macaques that had been confirmed to be serologically- and PCR-positive for T. cruzi were utilized in these studies. Using 19 animals in the treatment group provided 85% power of detecting 100% efficacy. […] The remaining three animals on the study were maintained as untreated control animals and received food treats but were not dosed with AN15368.
For hemoculture determinations, peripheral blood from macaques was collected and cultured at 26°C in supplemented liver digest neutralized tryptose medium as described previously. The presence of T. cruzi parasites was assessed every week for 3 months under an inverted microscope. T. cruzi DTU of the macaque isolates was determined as previously described.

The nature of data set [5]: Plasma protein binding (cyno). In kind it is in vitro ADME.

Where “and” joins values, the source holds several entries; their conditions need not be identical. Equal values may be shown once. Read-outs that look alike come from different tables or passages of the source.

2 molecules from article PMC9519446, “Discovery of an Orally Active Benzoxaborole Prodrug Effective in the Treatment of Chagas Disease in Non-human Primates” (Nature microbiology, 2022) can be followed below.

With `Cc1c(C(=O)NC(C(=O)OCc2ccc(F)c(F)c2)C(C)C)ccc2c1B(O)OC2` (centres unmarked) [AN14353], the 50% inhibitory concentration (IC50) (as a rule, the midpoint of a concentration-inhibition curve) in data set [1] (WT extracellular amastigotes, Fig. 2c, read-out: WT IC50) was 0.5 nM; in data set [1] (extracellular amastigotes, Fig. 2a, read-out: Extracellular IC50), 0.1 nM. In addition, the “Fluorescence intensity of the feet of mice infected with tdTomato-expressing T. cruzi” value is 1665.8 and 1203.3 and 1103.9 and 2856.3 and 2240.9 and 2906.1 and 796.9 and 2912.6 and 793.9 and 2840.0 in data set [2] (0.8 mg/kg); 1183.1 and 248.0 and 552.8 and 1244.2 and 574.1 and 807.8 and 439.5 and 1642.2 and 2070.5 and 1949.8 in data set [2] (3.2 mg/kg); 556.7 and -13.5 and -118.4 and 985.8 and 248.2 and 312.2 and -170.7 and 977.4 and 456.5 and 1102.8 in data set [2] (12.5 mg/kg); 916.6 and 1396.9 and 669.0 and 929.6 and 109.0 and 109.7 and 3.9 and 55.6 and 1126.1 and 448.9 in data set [2] (25 mg/kg); 248.7 and 316.0 and 101.3 and 60.4 and 606.3 and -64.8 and 95.6 and 476.3 and 738.5 and 600.3 in data set [2] (40 mg/kg). Moreover, in data set [2] (Fig. 3a, individual footpads), the “Parasite proliferation index of footpads infected with tdTomato-expressing T. cruzi” value was 1.9 and 17.1 and 45.9 and 24.7 and 19.1 and 29.9 and -18.9 and -3.0 and 31.4 and 4.1.
Regarding `Cc1c(C(=O)N[C@H](C(=O)OCC2CCOCC2)C(C)C)ccc2c1B(O)OC2` [AN15368], the concentration for half-maximal inhibition (IC50) in data set [3] came out at 2500 nM. In data set [4], the “culture of parasites from blood (in words)” value was “negative”. Besides, the “Funbound (cyno)” value in data set [5] came to 21%.
